Laboratory results reported in patent US7919495B2, “Pyridyl non-aromatic nitrogen-containing heterocyclic-1-carboxylate compound” (Astellas Pharma, Inc., priority 2005, dated 2011).
Where a name gives a salt, the structure may show the parent alone. Read-outs that look alike come from different tables or passages of the source.

Key:
[1] = molecular target: T1, FAAH in human bladder epithelial cancer-derived cell line 5678 cells (Homo sapiens, UniProt O00519); assay: Screening for FAAH activity-inhibiting substance with human bladder epithelial cancer-derived cell (IC50, Table 64); assay type: cell-based
T1 construct: host or cells: human bladder epithelial cancer-derived cell line ('5678' [sic], HTB-9)
T1 sequence (O00519 1-579): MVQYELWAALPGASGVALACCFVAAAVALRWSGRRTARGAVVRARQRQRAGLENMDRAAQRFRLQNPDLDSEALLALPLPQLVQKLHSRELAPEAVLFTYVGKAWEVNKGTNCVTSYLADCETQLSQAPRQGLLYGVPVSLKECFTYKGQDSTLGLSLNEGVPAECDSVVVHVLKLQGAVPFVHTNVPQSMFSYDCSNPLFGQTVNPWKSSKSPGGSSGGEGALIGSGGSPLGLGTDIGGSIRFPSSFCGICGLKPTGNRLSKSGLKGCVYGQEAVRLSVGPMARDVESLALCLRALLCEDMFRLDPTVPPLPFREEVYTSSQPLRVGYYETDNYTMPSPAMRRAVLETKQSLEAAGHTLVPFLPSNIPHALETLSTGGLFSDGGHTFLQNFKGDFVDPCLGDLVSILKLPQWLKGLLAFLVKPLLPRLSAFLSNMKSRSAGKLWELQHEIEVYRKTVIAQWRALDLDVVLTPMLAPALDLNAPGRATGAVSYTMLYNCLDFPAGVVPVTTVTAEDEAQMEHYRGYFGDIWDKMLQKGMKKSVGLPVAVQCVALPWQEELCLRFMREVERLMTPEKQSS
Description: Screening for FAAH Activity-Inhibiting Substance with Human Bladder Epithelial Cancer-Derived Cell
(1) Screening for FAAH Activity-Inhibiting Substance:
Human bladder epithelial cancer-derived cell line […] cells (HTB-9; ATCC) were seeded on a 48-well cell culture plate in an amount of 1×10^5 cell/well, using 10% fetal bovine serum (HyClone)-containing RPMI1640 medium (Invitrogen). After incubated at 37° C. for at least 12 hours, the cells were washed with 400 μl/well of a buffer (Hank's Balanced Salt Solution, 20 mM Hepes-NaOH (pH 7.4)). A test substance dissolved in DMSO was added to a substrate solution (the above buffer containing 3 μCi/ml radiolabeled anandamide (Anandamide [ethanolamine 1-3H]) and 10 μM anandamide) so as to have a concentration of from 0.003 nM to 30 nM. As a control, DMSO alone was added. 100 μl/well of the substrate solution was added to the above cells, and incubated in a CO2 incubator at 37° C. for 30 minutes. Next, the cell culture plate was transferred onto ice, and the substrate solution was removed by suction; and 75 μl/well of a cytolytic solution (the above buffer containing 0.5% Triton X-100, and 10 μM of FAAH-inhibitory activity-having compound, 3′-carbamoylbiphenyl-3-yl cyclohexylcarbamate (URB597; Cayman chemical; Kathuria et al., Nature Med., Vol. 9, pp. 76-81, 2003)) was added thereto, followed by stirring. The resulting cell lysate in every well was individually transferred into a 1.5 ml sample tube, to which was added 150 μl of 1:1 (by volume) chloroform/methanol solution, followed by vortexing. This was centrifuged (15000 rpm, 2 minutes), whereby the decomposed product, ethanolamine (ethanolamine 1-^3H) was separated in the upper layer (water/methanol layer) and the unreacted radiolabeled anandamide was in the lower layer (chloroform layer). 25 μl of the upper layer was transferred into a 96-well organic solvent-resistant white microplate (PicoPlate-96; Perkin Elmer), 150 μl of Microscint-20 (Perkin Elmer) was added thereto, and this was measured with a microplate scintillation counter (TopCount™; Beckman). As compared with the control, the substance that gave a decreased value was selected as an FAAH activity-inhibiting substance.
(2) Measurement of IC50 Value of FAAH Activity-Inhibiting Substance:
A test compound dissolved in DMSO to have a concentration of 10 mM was dissolved in the substrate solution so as to have a varying concentration of from 0.003 nM to 30 μM. According to the method mentioned above, the compound was analyzed for its influence on FAAH activity. As a negative control, DMSO was used. As a positive control, URB597 was added to the substrate solution to have a concentration of 10 μM. Based on the measured value of the positive control, 0%, and on the measured value of the negative control, 100%, IC50 value of the test substance was obtained.

[2] = system: CPA-induced urinary frequency in rat; assay: animal or person; assay type: in vivo; settings: po, 48 h, read-out: effective dose (increase of reduced effective bladder capacity)

Structure (SMILES) | IC50 [1] | other results
CCCCCCCCc1ccc(NC(=O)C2CCN(C(=O)Oc3cccnc3)CC2)cc1 [Example 176] | 0.84 nM | –
NC(=O)c1cncc(OC(=O)N2CCC(CCc3cccc(-c4ccccn4)c3)CC2)c1 [Example 349] | 0.054 nM | –
Cc1ccc(OC(=O)N2CCC(Oc3ccc(OCc4cccc(F)c4)cc3)CC2)cn1 [Example 13] | 0.27 nM | –
O=C(O)C(=O)O.O=C(O)C1CCN(c2cncc(OC(=O)N3CCC(Oc4ccc(OCc5cccc(F)c5)cc4)CC3)c2)CC1 [Example 261, 1-(5-{[(4-{4-[(3-fluorobenzyl)oxy]phenoxy}piperidin-1-yl)carbonyl]oxy}pyridin-3-yl)piperidine-4-carboxylic acid oxalate] | 0.54 nM | minimal effective dose [2]: 3 mg/kg
O=C(Nc1ccccc1)C1CCN(C(=O)Oc2cccnc2)CC1 [Example 173] | – | IC50 ([1]; human bladder epithelial cancer-derived cell line 5678 cells, read-out: cell FAAH IC50): 0.69 nM
CCN(CC)C(=O)c1ccc(CCC2CCN(C(=O)Oc3cncc(C(N)=O)c3)CC2)cc1 [Example 362] | 0.42 nM | –
O=C(Oc1cccnc1)N1CCC(Oc2ccc(OCc3cccc(Cl)c3)cc2)CC1 [Example 206, 3-pyridyl 4-{4-[(3-chlorobenzyl)oxy]phenoxy}-1-piperidinecarboxylate hydrochloride] | 0.17 nM | –
NC(=O)c1cncc(OC(=O)N2CCC(CCc3cccc(-c4ccccc4)c3)CC2)c1 [Example 340] | 0.052 nM | –
O=C(Oc1cccnc1)N1CCN(C(=O)c2ccc(OCc3cccc(Br)c3)cc2)CC1 [Example 159] | 0.23 nM | –
CC(=O)OCc1cncc(OC(=O)N2CCC(Oc3ccc(OCc4cccc(F)c4)cc3)CC2)c1 [Example 100] | 0.035 nM | –
O=C(Oc1cncc(Cl)c1)N1CCC(Oc2ccc(OCc3cccc(F)c3)cc2)CC1 [Example 42] | 0.43 nM | –
O=C(Oc1cccnc1)N1CCC(S(=O)(=O)c2ccc(OCc3ccccc3)cc2)CC1 [Example 88] | 0.37 nM | –
O=C(O)c1cncc(OC(=O)N2CCC(CCc3cccc(-c4ccccc4)c3)CC2)c1 [Example 293] | 0.24 nM | –
Cc1cccc(N2CCC(CCCC3CCN(C(=O)Oc4cncc(C(=O)O)c4)CC3)CC2)n1 [Example 313] | 0.89 nM | minimal effective dose [2]: 1 mg/kg
O=C(O)c1cncc(OC(=O)N2CCC(CCCC3CCN(c4ccc5ccccc5n4)CC3)CC2)c1 [Example 315] | 0.51 nM | –
O=C(Oc1cccnc1)N1CCC(S(=O)(=O)c2ccc(OCc3cccc(F)c3)cc2)CC1 [Example 80] | 0.044 nM | –
O=C(Oc1cccnc1)N1CCN(C(=O)c2cccc(OCc3cccc(Cl)c3)c2)CC1 [Example 138] | 0.078 nM | –
NC(=O)c1cncc(OC(=O)N2CCC(CCc3ccc(-c4ccc(F)cc4)cc3)CC2)c1 [Example 338] | 0.034 nM | –
COc1cccc(CCC2CCN(C(=O)Oc3cncc(C(=O)NCCO)c3)CC2)c1 [Example 328] | 0.42 nM | –
CC(C)NC(=O)c1cccc(CCC2CCN(C(=O)Oc3cncc(C(N)=O)c3)CC2)c1 [Example 372] | 0.49 nM | –
O=C(Oc1cccnc1)N1CCN(C(=O)c2ccc(OCc3ccc(F)cc3)cc2)CC1 [Example 155] | 0.061 nM | –
O=C(Oc1cccnc1)N1CCN(C(=O)c2cccc(OCC3CCCCC3)c2)CC1 [Example 122] | 0.15 nM | –
Cc1cccc(N2CCC(CCCC3CCN(C(=O)Oc4cncc(C(N)=O)c4)CC3)CC2)n1 [Example 378] | 0.2 nM | –
NC(=O)c1cncc(OC(=O)N2CCC(CCc3ccc(-c4ccccc4F)cc3)CC2)c1 [Example 346] | 0.27 nM | –
NC(=O)c1cccc(-c2cncc(OC(=O)N3CCC(CCc4ccccc4)CC3)c2)c1 [Example 266] | 0.31 nM | –
N#Cc1cccc(CCC2CCN(C(=O)Oc3cncc(C(=O)NCCO)c3)CC2)c1 [Example 330] | 0.53 nM | –
O=C(Oc1cccnc1)N1CCC(c2cccc(OCCCc3ccccc3)c2)CC1 [Example 113] | 0.056 nM | –

Structure (SMILES) | IC50 [1] | other results
O=C(Oc1cccnc1)N1CCC(Oc2ccc(OCc3ccccc3)cc2Cl)CC1 [Example 51] | 0.26 nM | –
NC(=O)CCNC(=O)c1cncc(OC(=O)N2CCC(CCc3ccccc3)CC2)c1 [Example 333] | 0.43 nM | –
O=C(Oc1cccnc1)N1CCC(Sc2cccc(OCc3cccc(F)c3)c2)CC1 [Example 101] | 0.078 nM | –
O=C(Oc1cccnc1)N1CCC(Oc2ccc(OCCC3CCCCC3)cc2)CC1 [Example 207] | 0.31 nM | –
COC(=O)CCc1cncc(OC(=O)N2CCC(Oc3ccc(OCc4cccc(F)c4)cc3)CC2)c1 [Example 61] | 0.35 nM | –
NC(=O)c1cncc(OC(=O)N2CCC(CCCC3CCN(c4ccc5ccccc5n4)CC3)CC2)c1 [Example 380] | 0.35 nM | –
O=C(c1ccc(OCc2cccc(F)c2)cc1)C1CCN(C(=O)Oc2cccnc2)CC1 [Example 3] | 0.073 nM | –
O=C(Oc1cccnc1)N1CCN(C(=O)c2ccc(OCc3cc(F)cc(F)c3)cc2)CC1 [Example 152] | 0.18 nM | –
O=C(Oc1cccnc1)N1CCN(C(=O)c2ccc(OCc3cccc([N+](=O)[O-])c3)cc2)CC1 [Example 154] | 0.17 nM | –
N#Cc1ccc(-c2ccc(CCC3CCN(C(=O)Oc4cncc(C(N)=O)c4)CC3)cc2)cc1 [Example 344] | 0.13 nM | –
CN(C)c1cncc(OC(=O)N2CCC(Oc3ccc(OCc4cccc(F)c4)cc3)CC2)c1 [Example 30] | 0.19 nM | –
COc1cccc(-c2ccc(CCC3CCN(C(=O)Oc4cncc(C(=O)O)c4)CC3)cc2)c1 [Example 303] | 0.12 nM | –
O=C(Oc1cccnc1)N1CCN(C(=O)c2ccc(OCc3cccc(C(F)(F)F)c3)cc2)CC1 [Example 149] | 0.45 nM | –
O=C(Oc1cccnc1)N1CCN(C(=O)c2ccc(OCCc3cccc(Cl)c3)cc2)CC1 [Example 160] | 0.51 nM | –
O=C(Oc1cccnc1)N1CCC(Oc2ccc(OCc3ccccc3F)cc2)CC1 [Example 208] | 0.13 nM | –
N#Cc1cccc(-c2cccc(CCC3CCN(C(=O)Oc4cncc(C(N)=O)c4)CC3)c2)c1 [Example 341] | 0.078 nM | –
O=C(Oc1cccnc1)N1CCC(Oc2ccc(OCc3ccccc3)c(Cl)c2)CC1 [Example 70] | 0.099 nM | –
N#Cc1cccc(-c2cccc(CCC3CCN(C(=O)Oc4cncc(C(=O)O)c4)CC3)c2)c1 [Example 294] | 0.6 nM | –
O=C(O)c1cncc(OC(=O)N2CCC(CCc3ccc(-c4cccc(F)c4)cc3)CC2)c1 [Example 302] | 0.17 nM | –
NC(=O)c1cncc(OC(=O)N2CCC(CCc3ccc(-c4cccc(F)c4)cc3)CC2)c1 [Example 345] | 0.18 nM | –
O=C(Oc1cccnc1)N1CCC(Oc2ccc(OCc3cccc(F)c3)cn2)CC1 [Example 103] | 0.092 nM | –
NC(=O)c1cncc(OC(=O)N2CCC(CCc3cccc(C(=O)NC4CCCCC4)c3)CC2)c1 [Example 351] | 0.13 nM | –
COc1ccc(-c2ccc(CCC3CCN(C(=O)Oc4cncc(C(=O)O)c4)CC3)cc2)cc1 [Example 300] | 0.43 nM | –
N#Cc1ccc(-c2ccc(CCC3CCN(C(=O)Oc4cncc(C(=O)O)c4)CC3)cc2)cc1 [Example 301] | 0.4 nM | –
O=C(O)c1cncc(OC(=O)N2CCC(CCc3ccc(-c4ccccc4F)cc3)CC2)c1 [Example 304] | 0.24 nM | –
O=C(O)c1cncc(OC(=O)N2CCC(CCc3ccc(-c4ccccc4)cc3)CC2)c1 [Example 281] | 0.082 nM | –
